# Literature values as cited in patent US9855260B2, “Quinolinone derivatives” (GlaxoSmithKline LLC, priority 2011, dated 2018).
# Test system: ob/ob and db/db mice
# Conditions: 8 day administration
compound,measurement,value
"NC(=O)c1ncn([C@@H]2O[C@H](CO)[C@@H](O)[C@H]2O)c1N [AICAR, 5-aminoimidazole-4-carboxamide-1(beta)-D-ribofuranoside]",reduces blood glucose,35%
